# Patent US20250032581A1, “COMPOSITIONS AND ARTICLES COMPRISING AN ADNF POLYPEPTIDE” (RAMOT AT TEL-AVIV UNIVERSITY LTD., priority 2021, published 2025)
# How the values were obtained:
# [1] = test system: Tyr mice; experiment: Ultrasonic vocalizations (USV) and syntax analysis of P8 pups (DeepSqueak); assay type: in vivo, mouse
# Text: The Intensity parameter is used to assess the effects of neuropathic pain, including mechanical allodynia. Max Contact Mean Intensity is the mean Intensity of a paw at Max Contact. Print length is the length (horizontal direction) of the complete print. The complete print is the sum of all contacts with the glass plate, as if the animal's paw would have been inked. Print width is the width (vertical direction) of the complete paw. Print area is the surface area of the complete print. Max Intensity is the maximum Intensity of the complete paw. Mean intensity is the mean Intensity of the complete paw. • USV: On P8, each pup was separated from the dam and placed in an empty cage for 6 minutes, in a quiet room and was recorded using the M500-384 USB Ultrasound Microphone (Petterson, Sweden). Pups were distinguished from one another using the tattoos listed above. After 6 minutes pups were reunited with its dam. Data were analyzed using DeepSqueak. Data were loaded onto DeepSqueak, frequencies between 40-70 kHz were analyzed using the mouse call network V2. Calls were denoised using post hoc denoising network. For syntax analysis, Syntax was classified using Wright K means network. Syntax transition probability charts were generated using DeepSqueak and Matlab. Further USV experiments were performed on P8 pups as previously described (12) with slight modifications.
# [2] = test system: Tyr mice; experiment: Visual evoked potentials (VEP); assay type: in vivo, mouse; design: key to NAP efficacy: visual evoked potential/axonal transport: corrections by NAP treatment (+)
# Description: VEP—5.72±0.52-week-old male mice were used for VEP measurements. Animals were treated for 3 days with 0.1 ml S.C saline, recorded, and then followed by 4 daily S.C doses of either 1 μg NAP (in 0.1 ml saline) or 0.1 ml saline followed by another VEP recording.
# [3] = test system: Tau-MT interaction in differentiated N1E-115 cells; experiment: Fluorescence recovery after photobleaching (FRAP) of mCherry-Tau; assay type: cell-based, mouse; conditions: for Tau-MT interaction (immobile mCherry-Tau fraction): 4 hrs
# Description: Cell culture—Mouse neuroblastoma NIE-115 cells were maintained in Dulbecco's modified Eagle's medium, 10% fetal bovine serum, 2 mM glutamine and 100 U ml-1 penicillin, 100 mg ml-1 streptomycin (Biological Industries, Beit Haemek, Israel). The cells were incubated in 9 5% air/5% CO2 in a humidified incubator at 37° C.
# Cell differentiation and co-transfection of overexpression plasmids—Cultured NIE-115 cells were plated on 35 mm dishes (81156, 60 p-Dish, Ibidi, Martinsried, Germany) at a concentration of 1.25×10^4 cells per dish and then were differentiated with reduced fetal bovine serum (2%) and DMSO (1.25%) containing medium for 5 days before transfection. 48 hrs before experiments N1E-115 cells were co-transfected with 1 μg EB3-RFP or mCherry-Tau (3R) plasmid with or without 2 μg of plasmids, coding to GFP conjugated to full-length human ADNP, or ADNP carried mutations. 1:3 ratios between total amount of transfected DNA and transfection reagent were used according to manufacture guidance (Lipofectamine2000, Thermo Fisher Scientific, Waltham, MA, USA) in all subsequent experiments.
# Fluorescence recovery after photobleaching (FRAP)—Differentiated NIE-115 cells were transfected with mCherry-Tau with or without GFP-conjugated to full-length ADNP or mutated ADNP, and imaged 48 hrs after transfection. An ROI for photobleaching was drowned in the proximal cell branches. mCherry-Tau was bleached with a […], and fluorescence recovery was collected within wavelengths of 610-650 nm. 80 images were taken every 0.74 sec immediately after bleaching. After FRAP imaging all samples were also treated with NAP in final concentrations of 10^−12M, and after 4 hrs time-lapse imaging was done again under the same conditions. FRAP imaging for assessment difference between NAP and SKIP (SEQ ID NO: 21) activity was performed after an hour of ZnCl2 treatment (400 μM final concentration; Sigma, Rehovot, Israel) with or without NAP/SKIP (10^−12M final concentration). Fluorescence signals were quantified with Fiji, obtained data were normalized with easyFRAP [82, 83] and FRAP recovery curves were fitted by a one-phase exponential association function by GraphPad Prism6 (GraphPad Software, Inc., La Jolla, CA, USA) while samples with R^2<0.9 were excluded.
# Next, the effect of full-length/truncated ADNP forms with or without NAP treatment on Tau-MT interaction was examined by fluorescence recovery after photobleaching (FRAP) (FIGS. 8A-C). FRAP was performed with mCherry-tagged Tau protein (FIG. 8A). […] Therefore, the immobile mCherry-Tau fraction reflects the rate of Tau association with MTs.
# [4] = test system: mice with the ASD-linked InsG3680 mutation (SHANK3); experiment: Social recognition test in the SHANK3 mouse model; assay type: in vivo; conditions: intranasal NAP
# Description: To this end, mice with the ASD-linked InsG3680 mutation were used. Two behavioral assessments were performed on make mice: • 1) Open field behavior attesting to anxiety and depression (Open field behavioral assessment technology was previously described, e.g.); and • 2) Social recognition behavior, related to autistic traits (the social recognition test was previously described, e.g..
# In the social recognition test, the results measured both time exploring and frequency exploring the mouse or cup, either directly or in the chamber where the mouse or cup only are present (FIG. 13).
# [5] = test system: ADNP^+/− MOUSE; design: key: corrections by NAP treatment (+); conditions: Adnp+/− mouse (second symbol); cited from earlier work
structure (smiles),measurement,setting,value
"CC[C@H](C)[C@H](NC(=O)[C@H](CO)NC(=O)[C@@H](NC(=O)[C@@H]1CCCN1C(=O)[C@H](C)NC(=O)[C@@H](N)CC(N)=O)C(C)C)C(=O)N1CCC[C@H]1C(=O)N[C@@H](CCC(N)=O)C(=O)O [NAP, NAPVSIPQ]",total USVs,[1]; Tyr female and male P8 pups,no NAP effects
same,syntax,"[1]; WT pups, data not shown",minor varied impact on WT pups
same,"syntax transition probabilities, Xi square analysis Tyr vs. Tyr NAP","[1]; females, p<0.001",significant improvement with NAP treatment
same,"syntax transition probabilities, Xi square analysis Tyr vs. Tyr NAP","[1]; males, p=0.027",same significant changes
same,VEP P3 AUC,[2]; Tyr males,significant NAP effect seen in the 300 and 3000 mcd intensities
same,NAP efficacy: visual evoked potential/axonal transport,[2]; Tyr mouse (first symbol),+/+
same,Tau-MT interaction (immobile mCherry-Tau fraction),"[3]; cells expressing ADNP p.Glu830synfs*83, NAP 10^−12M",significantly increased Tau-MT interaction
same,Tau-MT interaction (immobile mCherry-Tau fraction),"[3]; cells expressing ADNP p.Ser404*, NAP 10^−12M",significantly increased Tau-MT interaction
same,Tau immobile fraction (Tau-MT interaction) in the presence of zinc,"[3]; zinc 400 μM, 1 h, peptide 10^−12M",excessive impact of NAP on Tau-MT interaction
same,social recognition: mouse vs. cup exploration,[4],normalization of behavior in the NAP-treated SHANK3 mouse model
same,NAP efficacy: visual evoked potential/axonal transport,[5],+/+
